Laboratory results as given in PubChem BioAssay AID256 (DTP/NCI, 2004).
Toxic doses and inconclusive results are not listed. The calls were made as follows: active = survival T/C of 150% or more; inactive = T/C below 125% in these data.

Tested on: CD2F1 mice, L1210 leukemia ip, survival T/C
Test: NCI In Vivo Anticancer Drug Screen. Data for tumor model L1210 Leukemia (intraperitoneal) in CD2F1 (CDF1) mice
Details: higher = longer survival
In short: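 Tumor-bearing mice (transplanted tumor) were split into treated and vehicle control groups, and the measured endpoint of each treated group was divided by that of its vehicle controls.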

[1] = endpoint: mean survival time, dose: 100.0 mg/kg/injection, schedule: Q01DX009 (ip), vehicle: saline with Tween-80
[2] = endpoint: mean survival time, dose: 200.0 mg/kg/injection, schedule: Q01DX009 (ip), vehicle: saline with Tween-80
[3] = endpoint: mean survival time, dose: 400.0 mg/kg/injection, schedule: Q01DX009 (ip), vehicle: saline with Tween-80
[4] = endpoint: mean survival time, dose: 100.0 mg/kg/injection, schedule: Q04DX003 (ip), vehicle: saline
[5] = endpoint: mean survival time, dose: 100.0 mg/kg/injection, schedule: Q04DX003 (ip), vehicle: saline with Tween-80
[6] = endpoint: mean survival time, dose: 200.0 mg/kg/injection, schedule: Q04DX003 (ip), vehicle: saline with Tween-80
[7] = endpoint: mean survival time, dose: 400.0 mg/kg/injection, schedule: Q04DX003 (ip), vehicle: saline with Tween-80
[8] = endpoint: mean survival time, dose: 100.0 mg/kg/injection, schedule: Q01DX001 (ip), vehicle: saline with Tween-80
[9] = endpoint: mean survival time, dose: 200.0 mg/kg/injection, schedule: Q01DX001 (ip), vehicle: saline with Tween-80
[10] = endpoint: mean survival time, dose: 400.0 mg/kg/injection, schedule: Q01DX001 (ip), vehicle: saline with Tween-80
[11] = endpoint: mean survival time, dose: 50.0 mg/kg/injection, schedule: Q01DX009 (ip), vehicle: saline with Tween-80
[12] = endpoint: mean survival time, dose: 100.0 mg/kg/injection, schedule: Q01DX001 (ip), vehicle: carboxymethylcellulose (CMC)
[13] = endpoint: mean survival time, dose: 200.0 mg/kg/injection, schedule: Q01DX001 (ip), vehicle: carboxymethylcellulose (CMC)
[14] = endpoint: mean survival time, dose: 400.0 mg/kg/injection, schedule: Q01DX001 (ip), vehicle: carboxymethylcellulose (CMC)
[15] = endpoint: mean survival time, dose: 50.0 mg/kg/injection, schedule: Q04DX002 (ip), vehicle: saline with Tween-80
[16] = endpoint: mean survival time, dose: 100.0 mg/kg/injection, schedule: Q04DX002 (ip), vehicle: saline with Tween-80
[17] = endpoint: mean survival time, dose: 200.0 mg/kg/injection, schedule: Q04DX002 (ip), vehicle: saline with Tween-80
[18] = endpoint: mean survival time, dose: 400.0 mg/kg/injection, schedule: Q04DX002 (ip), vehicle: saline with Tween-80
[19] = endpoint: mean survival time, dose: 100.0 mg/kg/injection, schedule: Q04DX003 (ip), vehicle: saline sonified
[20] = endpoint: mean survival time, dose: 200.0 mg/kg/injection, schedule: Q04DX003 (ip), vehicle: saline sonified
[21] = endpoint: mean survival time, dose: 400.0 mg/kg/injection, schedule: Q04DX003 (ip), vehicle: saline sonified

Measured: T/C

S=C(S)Nc1cccc2ccccc12
inactive: [1] 93 % of control | [2] 97 % of control | [3] 93 % of control

CN(Cc1cnc2nc(N)nc(N)c2n1)c1ccc(C(=O)NC(CCC(=O)O)C(=O)NCC(=O)O)cc1 (stereo not drawn)
inactive: endpoint: mean survival time, dose: 1.0 mg/kg/injection, schedule: Q01DX009 (ip), vehicle: sodium bicarbonate 103 % of control | endpoint: mean survival time, dose: 2.0 mg/kg/injection, schedule: Q01DX009 (ip), vehicle: sodium bicarbonate 109 % of control | endpoint: mean survival time, dose: 5.0 mg/kg/injection, schedule: Q01DX009 (ip), vehicle: sodium bicarbonate 102 % of control | endpoint: mean survival time, dose: 10.0 mg/kg/injection, schedule: Q01DX009 (ip), vehicle: sodium bicarbonate 108 % of control

COc1ccc(C=NCCO)cc1OC
inactive: endpoint: median survival time, dose: 50.0 mg/kg/injection, schedule: Q04DX002 (ip), vehicle: saline with Tween-80 111 % of control | endpoint: median survival time, dose: 100.0 mg/kg/injection, schedule: Q04DX002 (ip), vehicle: saline with Tween-80 100 % of control | endpoint: median survival time, dose: 200.0 mg/kg/injection, schedule: Q04DX002 (ip), vehicle: saline with Tween-80 100 % of control | endpoint: median survival time, dose: 400.0 mg/kg/injection, schedule: Q04DX002 (ip), vehicle: saline with Tween-80 100 % of control

CC(=O)N1CCC(Cc2ccccc2)CC1
inactive: [4] 97 % of control | endpoint: mean survival time, dose: 200.0 mg/kg/injection, schedule: Q04DX003 (ip), vehicle: saline 94 % of control | endpoint: mean survival time, dose: 400.0 mg/kg/injection, schedule: Q04DX003 (ip), vehicle: saline 95 % of control

CSc1ccc(NC(=O)C(O)C(O)C(O)C(O)CO)cc1 (stereo not drawn)
inactive: endpoint: mean survival time, dose: 100.0 mg/kg/injection, schedule: Q01DX009 (ip), vehicle: saline 103 % of control | endpoint: mean survival time, dose: 200.0 mg/kg/injection, schedule: Q01DX009 (ip), vehicle: saline 113 % of control | endpoint: mean survival time, dose: 400.0 mg/kg/injection, schedule: Q01DX009 (ip), vehicle: saline 102 % of control

BrC1(Br)C2CCCCCCC21 (stereo not drawn)
inactive: [1] 91 % of control | [5] 87 % of control | [2] 87 % of control | [6] 98 % of control | [7] 96 % of control

O=C(COc1cccc(Cl)c1)Nc1cccc(NC(=O)c2ccc(S(=O)(=O)F)cc2)c1
inactive: [8] 91 % of control | [9] 90 % of control | [10] 101 % of control

O=C1c2cc([N+](=O)[O-])ccc2-c2ccc([N+](=O)[O-])cc21
inactive: endpoint: mean survival time, dose: 12.5 mg/kg/injection, schedule: Q01DX009 (ip), vehicle: Klucel (hydroxypropylcellulose) (HPC) 98 % of control | endpoint: mean survival time, dose: 25.0 mg/kg/injection, schedule: Q01DX009 (ip), vehicle: Klucel (hydroxypropylcellulose) (HPC) 95 % of control | endpoint: mean survival time, dose: 50.0 mg/kg/injection, schedule: Q01DX009 (ip), vehicle: Klucel (hydroxypropylcellulose) (HPC) 102 % of control

CCCC(C)c1ccccc1O (stereo not drawn)
inactive: endpoint: mean survival time, dose: 25.0 mg/kg/injection, schedule: Q01DX009 (ip), vehicle: saline with Tween-80 102 % of control | endpoint: mean survival time, dose: 25.0 mg/kg/injection, schedule: Q04DX003 (ip), vehicle: saline 97 % of control | [11] 98 % of control | endpoint: mean survival time, dose: 50.0 mg/kg/injection, schedule: Q04DX003 (ip), vehicle: saline 105 % of control | [1] 92 % of control | [4] 94 % of control

CC(C)N(CCNc1nc(C(Cl)(Cl)Cl)nc2ccc(Cl)cc12)C(C)C
inactive: [8] 103 % of control | [1] 96 % of control | [9] 94 % of control | [2] 96 % of control | [10] 103 % of control | [3] 95 % of control

O=C(NCCCl)Nc1ccc(O)cc1
inactive: [12] 101 % of control | [13] 98 % of control | [14] 104 % of control

O=C1CC(c2ccccc2)C(c2ccccc2)N1Cc1ccccc1 (stereo not drawn)
inactive: endpoint: mean survival time, dose: 100.0 mg/kg/injection, schedule: Q04DX003 (ip), vehicle: other 93 % of control | endpoint: mean survival time, dose: 200.0 mg/kg/injection, schedule: Q04DX003 (ip), vehicle: other 93 % of control | endpoint: mean survival time, dose: 400.0 mg/kg/injection, schedule: Q04DX003 (ip), vehicle: other 97 % of control

COc1ccccc1OC
inactive: [1] 95 % of control | [2] 92 % of control | [3] 92 % of control

CC1CC/C(=N/NC(N)=O)C1 (stereo not drawn)
inactive: endpoint: mean survival time, dose: 50.0 mg/kg/injection, schedule: Q01DX001 (ip), vehicle: carboxymethylcellulose (CMC) 100 % of control | [12] 94 % of control | [13] 100 % of control | [14] 100 % of control

Cc1cc2ncn(CC(=O)O)c2cc1C
inactive: [1] 98 % of control | [2] 93 % of control

COc1ccc2c(c1)CCc1cnn(C3OC(COC(C)=O)C(OC(C)=O)C(OC(C)=O)C3OC(C)=O)c1-2 (stereo not drawn)
inactive: endpoint: mean survival time, dose: 12.5 mg/kg/injection, schedule: Q01DX005 (ip), vehicle: other 92 % of control | endpoint: mean survival time, dose: 25.0 mg/kg/injection, schedule: Q01DX005 (ip), vehicle: other 90 % of control | endpoint: mean survival time, dose: 50.0 mg/kg/injection, schedule: Q01DX005 (ip), vehicle: other 87 % of control

Cc1ccc(S/C=C/C(=O)Nc2ccccc2)cc1
inactive: endpoint: mean survival time, dose: 25.0 mg/kg/injection, schedule: Q04DX002 (ip), vehicle: saline with Tween-80 101 % of control | [15] 94 % of control | [8] 97 % of control | [16] 101 % of control | [5] 87 % of control | [9] 105 % of control | [10] 94 % of control

CC(=O)Nc1ccc(/C=C2\N=C(c3cccc(Cl)c3)OC2=O)cc1
inactive: [16] 90 % of control | [17] 98 % of control | [18] 105 % of control

Cc1cc2oc(=O)c(Cl)c(NCCO)c2c(C)c1Cl
inactive: [8] 98 % of control | [9] 98 % of control | [10] 93 % of control

CSC(=O)C(=O)SC
inactive: endpoint: mean survival time, dose: 50.0 mg/kg/injection, schedule: Q01DX001 (ip), vehicle: saline with Tween-80 100 % of control | [8] 108 % of control

Cn1c(CC(O)(C(F)(F)Cl)C(F)(F)Cl)cc(=O)n1-c1ccccc1
inactive: endpoint: mean survival time, dose: 50.0 mg/kg/injection, schedule: Q04DX003 (ip), vehicle: saline with Tween-80 101 % of control | [1] 97 % of control | [5] 97 % of control | [2] 97 % of control | [6] 97 % of control | [7] 92 % of control

CS(=O)(=O)Nc1ccc2c(c1)C(=O)c1ccccc1C2=O
inactive: [11] 101 % of control | [1] 101 % of control | [2] 97 % of control

NC(=O)OCCc1c2ccccc2[n+]([O-])c2ccccc12
inactive: [15] 98 % of control | [16] 95 % of control | [17] 98 % of control | [18] 95 % of control

CCCCCC(O)/C=C/Sc1n[nH]c(=O)[nH]c1=O (stereo not drawn)
inactive: endpoint: mean survival time, dose: 12.5 mg/kg/injection, schedule: Q01DX005 (ip), vehicle: distilled water + Tween-80 104 % of control | endpoint: mean survival time, dose: 25.0 mg/kg/injection, schedule: Q01DX005 (ip), vehicle: distilled water + Tween-80 94 % of control | endpoint: mean survival time, dose: 50.0 mg/kg/injection, schedule: Q01DX005 (ip), vehicle: distilled water + Tween-80 98 % of control | endpoint: mean survival time, dose: 100.0 mg/kg/injection, schedule: Q01DX005 (ip), vehicle: distilled water + Tween-80 90 % of control | endpoint: mean survival time, dose: 200.0 mg/kg/injection, schedule: Q01DX005 (ip), vehicle: distilled water + Tween-80 93 % of control

O=S(=O)(O)c1cccc2cnccc12
inactive: [1] 98 % of control | [19] 93 % of control | [2] 96 % of control | [20] 98 % of control | [3] 93 % of control | [21] 98 % of control

O=C(c1ccccc1)c1ccc([N+](=O)[O-])cc1
inactive: [19] 92 % of control | [20] 95 % of control | [21] 100 % of control

O=C1C(c2ccccc2)=C(c2ccccc2)C(c2ccccc2)=C1c1ccccc1
inactive: [11] 95 % of control | [8] 97 % of control | [1] 91 % of control | [9] 87 % of control | [2] 88 % of control | [10] 91 % of control

CN(C)C=Nc1ccc([N+](=O)[O-])cc1
inactive: [5] 101 % of control | [6] 101 % of control | [7] 92 % of control

NC(N)=N/N=C/c1cc(Br)ccc1O
inactive: endpoint: mean survival time, dose: 37.5 mg/kg/injection, schedule: Q01DX009 (ip), vehicle: saline 105 % of control | endpoint: mean survival time, dose: 37.5 mg/kg/injection, schedule: Q04DX003 (ip), vehicle: saline 110 % of control | endpoint: mean survival time, dose: 75.0 mg/kg/injection, schedule: Q04DX003 (ip), vehicle: saline 114 % of control | endpoint: mean survival time, dose: 150.0 mg/kg/injection, schedule: Q04DX003 (ip), vehicle: saline 108 % of control
